Assay [1] concerns the target T1, human NCX1 (Homo sapiens, UniProt P32418).
T1 construct: expressed in transfected cells
Briefly: NCX1 inhibition, reverse mode (Ca2+ influx into cells), FLIPR Fluo-4 assay. It is filed as cell-based. Particulars: inhibition of NCX1 in reverse mode (Ca2+ influx into cells); read-out: NCX1rv IC50. The method in brief: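 CHO cells stably expressing human NCX1 were loaded with 2 µM Fluo-4 AM for 80 min at room temperature, then preincubated with compound for 45 min at 16 °C in pH 7.4 HEPES buffer (3.5 mM CaCl2, 2.5 mM probenecid). Reverse-mode Ca2+ influx was triggered by 20 µM final gramicidin and read at 520 nm on FLIPR. IC50 came from % inhibition of max−min fluorescence.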

For another assay, the system named is Sprague-Dawley rats. Briefly: In vivo method for determining the effect on heart contractility (left ventricular dp/dtmax). Particulars: Rattus norvegicus, iv, read-out: Contractility increase (%). As to the method: Adult male Sprague-Dawley rats (Harlan Winkelmann, Borchen, Germany) weighing 340 to 370 g were anesthetized with pentobarbital (100 mg/kg i.p.) and ventilated with a mixture of oxygen (40%) and room air (60%) at a tidal volume of 1 ml/100 g at 60 breaths/min. Body temperature was maintained at 36.5±0.3° C. with a heating lamp and was monitored with a rectal thermo sensor. Systemic blood pressure was measured in the left carotid artery using a pressure transducer (Combitrans; B. Braun Melsungen AG, Melsungen, Germany) connected to a DC-bridge-amplifier (PLUGSYS/ADC Type 663; Harvard Apparatus GmbH, March-Hugstetten, Germany). The electrocardiogram was measured as lead II via subcutaneously placed electrodes connected to a Heart-Rate-Module ([…] Type 669; Harvard Apparatus GmbH, March-Hugstetten, Germany). A micro-tip catheter (2 French, SPR-320; Millar Instruments, Houston, Tex., USA) was placed via the right carotid artery into the left ventricle, and the left ventricular pressure (LVP) and the enddiastolic pressure (EDP) were continuously measured. Registration of the hemodynamic data was performed via an analog digital converter by a personal computer using Notocord software (HEM version 3.5). Left ventricular contractility (dp/dtmax) and relaxation (dp/dtmin) were calculated from the LVP signal. For intravenous administration of the test compounds, the left jugular vein was prepared and a PP-50 catheter was inserted. Test compounds were administered either by intravenous bolus injection or by intravenous infusion by means of an infusion pump (Unita; B. Braun Melsungen AG, Melsungen, Germany). […] In a typical experiment, several dosages of the test compound were administered subsequently at increasing doses. Statistical significance of the data obtained with drug vs. control experiments, in which solvent was administered, was evaluated with the 2-sided ANOVA test (program Everstat). Increases in left ventricular contractility (percent increase) by example compounds are given in Table 3 in comparison to control experiments in which solvent was administered.

Assay [2] concerns the target T1, human NCX1. The assay is described as follows: NCX1 inhibition, forward mode (Ca2+ efflux out of cells), FLIPR calcium assay. It is filed as cell-based. Particulars: CHO cells stably expressing human NCX1, read-out: NCX1fw IC50. The text has this:
The sodium/calcium exchanger NCX1 can transport calcium ions and sodium ions through the cell membrane. The transport is an exchange of Ca^2+ and Na^+ in two directions depending on membrane potential and ion gradients. At the first direction, named “forward mode” or “calcium export mode”, Ca^2+ is transported out of the cell and Na^+ is transported into the cell. At the other direction, named “reverse mode” or “calcium import mode”, the transport directions are vice versa. The effect of the compounds of the invention on NCX1 was determined in CHO cells stably expressing human NCX1 (gene symbol SLC8A1; cf. WO 2009/115238). The assay is based on the monitoring of intracellular Ca^2+ concentrations using a calcium-sensitive fluorescence dye which is detected by means of a FLIPR device (Fluorimetric Imaging Plate Reader, Molecular Devices).
The assay is based on the monitoring of intracellular Ca^2+ concentrations using the PBX Calcium Assay Kit from BD (Becton, Dickinson and Company) with calcium indicator dye 51-9000177BKa (BD, 640177). CHO cells expressing NCX1 were loaded with the dye, and after a preincubation period with the test compound, Ionomycin (Calbiochem, 407950) was added. Ionomycin is an ionophor for Ca^2+ ions mediating an increase of intracellular Ca^2+ ions. Consequently, intracellular Ca^2+ ions are exchanged against extracellular Na^+ ions (Ca^2+ efflux, forward mode). The decrease of intracellular Ca^2+ ions was detected by measuring the fluorescence of the calcium indicator dye at a wavelength of 520 nm by a FLIPR device.
Briefly, similarly as for the reverse mode, for the forward mode transport assay 18000 cells per well were seeded into a 96 well microplate (Corning COSTAR 3904) and incubated overnight in culture medium (cf. above). A total volume of 100 μl medium per well was used. For the preparation of the FLIPR assay, the culture medium was removed from the plates and 100 μl of assay buffer (133.8 mM NaCl (Sigma, S5886); 4.7 mM KCl (Sigma, P3911); 1.25 mM MgCl2 (Merck, 1.05833.0250); 3.5 mM CaCl2(Merck, 1.02083.0250); 5 mM glucose (Sigma, G7021); 10 mM Hepes (Sigma, H4034); pH 7.4)) were added to each well in a washing step. Assay buffer was removed, and 100 μl of a solution of the test compound in assay buffer in different concentrations were added into the wells. Further, 100 μl of dye solution (0.09% (v/v) calcium indicator dye, 9.1% (v/v) signal enhancer (from PBX Calcium Assay Kit); in assay buffer) were added into each well. The plates were incubated in the dark at room temperature for 60 min. Meanwhile a 10 μM solution of Ionomycin in assay buffer (additionally containing 0.05% fetal calf serum (cf. above); 4° C.) was prepared and stored in the wells of a 96 well microplate (96 well microplate, polypropylene, U-shape (Greiner Bio-One, 650201)). The fluorescence monitoring was performed at 60 measuring points with measurement intervals of 2 sec. After the fifth measuring point, 50 μl of the Ionomycin solution were added to each well of the assay plate to give a final Ionomycin concentration of 2 μM. For the determination of the IC50 values the minimal fluorescence value was subtracted from the maximal fluorescence value for the fifteenth to fifty-fifth measuring points. The calculation of the IC50 values via the percentage inhibitions of Ca^2+ efflux out of cells (forward mode) effected by the test compound was performed in Biost@t Speed 2.0. “NCX1fw IC50” in Table 2 means the IC50 value for inhibition of NCX1 in forward mode (in μM (micromol/liter)).

Consider 1 compound from patent US20140243292A1, “SUBSITUTED 2-(CHROMAN-6-YLOXYL)-THIAZOLES AND THEIR USE AS PHARMACEUTICALS” (Sanofi, priority 2011, published 2014).

Counter-ions that a name gives are not always drawn.

Consider `Cc1ccccc1[C@@H]1CCc2cc(Oc3ncc(C(=O)NCCOP(=O)(O)O)s3)ccc2O1` [Example 345, Phosphoric acid mono-(2-{[2-((S)-2-o-tolyl-chroman-6-yloxy)-thiazole-5-carbonyl]-amino}-ethyl) ester disodium salt], for which the figures for the IC50 at human NCX1 [1] and on human NCX1 [2] were 70 nM and 3000 nM, respectively. Also, the change in vivo at 0.03 mg/kg/min in the assay on Sprague-Dawley rats worked out at 32%. Besides, the change in vivo at 0.1 mg/kg/min in the assay on Sprague-Dawley rats came out at 85%.

Usually IC50 stands for the concentration that inhibits the measured activity by half.
